Laboratory results as given in PubChem BioAssay (NCI).
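Five compound concentrations were applied to cells in 96-well plates for 48 hours; endpoints were derived by simple linear interpolation of the resulting dose-response curve. Here, GI50 denotes the concentration required for 50% inhibition of growth. Definition used: TGI = concentration required for complete inhibition of growth.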

Key:
Experiment in all cases: growth of human tumour cells (NCI), 48 h
[1] = system: SNB-75 CNS
[2] = system: HCC-2998 colon
[3] = system: LOX IMVI melanoma
[4] = system: SK-MEL-5 melanoma
[5] = system: MOLT-4 leukemia
[6] = system: MCF7 breast
[7] = system: UACC-62 melanoma
[8] = system: SW-620 colon
[9] = system: DU-145 prostate
[10] = system: EKVX NSCLC
[11] = system: A498 renal
[12] = system: BT-549 breast
[13] = system: UACC-257 melanoma
[14] = system: A549 NSCLC
[15] = system: CCRF-CEM leukemia
[16] = system: ACHN renal
[17] = system: CAKI-1 renal
[18] = system: HCT-116 colon
[19] = system: T-47D breast
[20] = system: MALME-3M melanoma
[21] = system: SK-MEL-28 melanoma
[22] = system: SK-OV-3 ovarian
[23] = system: HL-60(TB) leukemia
[24] = system: OVCAR-3 ovarian
[25] = system: SR leukemia
[26] = system: RPMI-8226 leukemia
[27] = system: HT29 colon
[28] = system: HOP-62 NSCLC
[29] = system: KM12 colon
[30] = system: NCI-H23 lung
[31] = system: 786-0 renal
[32] = system: PC-3 prostate
[33] = system: NCI/ADR-RES ovarian
[34] = system: SNB-19 CNS
[35] = system: SK-MEL-2 melanoma
[36] = system: HS 578T breast
[37] = system: NCI-H522 lung
[38] = system: NCI-H226 lung
[39] = system: SF-268 CNS
[40] = system: OVCAR-5 ovarian
[41] = system: NCI-H460 lung
[42] = system: M14 melanoma
[43] = system: MDA-MB-435
[44] = system: OVCAR-8 ovarian
[45] = system: K-562 leukemia
[46] = system: HCT-15 colon
[47] = system: SF-295 CNS
[48] = system: TK-10 renal
[49] = system: UO-31 renal
[50] = system: OVCAR-4 ovarian
[51] = system: U251 CNS
[52] = system: COLO 205 colon
[53] = system: RXF 393 renal
[54] = system: SF-539 CNS
[55] = system: HOP-92 NSCLC
[56] = system: SN12C renal
[57] = system: MDA-MB-231 breast

COCCNc1ccc2c3c(cccc13)C(=O)N(CCN(C)C)C2=O
GI50 [1]: 15.9 µM | TGI [1]: > 25 µM | GI50 [2]: 10.1 µM | TGI [2]: > 25 µM | GI50 [3]: 7.06 µM | TGI [3]: > 25 µM | GI50 [4]: 4.76 µM | TGI [4]: 13.1 µM | GI50 [5]: 4.98 µM | TGI [5]: 13 µM | GI50 [6]: 6.5 µM | TGI [6]: 23.4 µM | GI50 [7]: 4.54 µM | TGI [7]: 14.4 µM | GI50 [8]: 6.69 µM | TGI [8]: > 25 µM | GI50 [9]: 9.41 µM | TGI [9]: > 25 µM | GI50 [10]: 6.23 µM | TGI [10]: > 25 µM | GI50 [11]: 6.16 µM | TGI [11]: 21.5 µM | GI50 [12]: 10.7 µM | TGI [12]: > 25 µM | GI50 [13]: 7.23 µM | TGI [13]: > 25 µM | GI50 [14]: 6.35 µM | TGI [14]: > 25 µM | GI50 [15]: 6.38 µM | TGI [15]: > 25 µM | GI50 [16]: 4.64 µM | TGI [16]: > 25 µM | GI50 [17]: 4.49 µM | TGI [17]: 10.1 µM | GI50 [18]: 6.65 µM | TGI [18]: > 25 µM | GI50 [19]: 4.87 µM | TGI [19]: 23.8 µM | GI50 [20]: 6.13 µM | TGI [20]: 21.1 µM | GI50 [21]: 7.16 µM | TGI [21]: 23.1 µM | GI50 [22]: 4.28 µM | TGI [22]: > 25 µM | GI50 [23]: 6.78 µM | TGI [23]: 14.4 µM | GI50 [24]: 8.65 µM | TGI [24]: > 25 µM | GI50 [25]: 3.67 µM | TGI [25]: 11.4 µM | GI50 [26]: 5.27 µM | TGI [26]: 15 µM | GI50 [27]: 7.66 µM | TGI [27]: > 25 µM | GI50 [28]: 7.55 µM | TGI [28]: > 25 µM | GI50 [29]: 8.65 µM | TGI [29]: > 25 µM | GI50 [30]: 8.04 µM | TGI [30]: > 25 µM | GI50 [31]: 9.13 µM | TGI [31]: > 25 µM | GI50 [32]: 9.76 µM | TGI [32]: > 25 µM | GI50 [33]: 8.98 µM | TGI [33]: > 25 µM | GI50 [34]: 4.11 µM | TGI [34]: > 25 µM | GI50 [35]: 8.24 µM | TGI [35]: > 25 µM | GI50 [36]: 9.38 µM | TGI [36]: > 25 µM | GI50 [37]: 4.06 µM | TGI [37]: 12.4 µM | GI50 [38]: 5.01 µM | TGI [38]: 17 µM | GI50 [39]: 8.95 µM | TGI [39]: > 25 µM | GI50 [40]: 9.41 µM | TGI [40]: > 25 µM | GI50 [41]: 4.63 µM | TGI [41]: 11.4 µM | GI50 [42]: 7.98 µM | TGI [42]: > 25 µM | GI50 [43]: 8.15 µM | TGI [43]: > 25 µM | GI50 [44]: 6.85 µM | TGI [44]: > 25 µM | GI50 [45]: 4.66 µM | TGI [45]: 11.5 µM | GI50 [46]: 6.84 µM | TGI [46]: > 25 µM | GI50 [47]: 6.31 µM | TGI [47]: 21.1 µM | GI50 [48]: 4.2 µM | TGI [48]: 22.1 µM | GI50 [49]: 4.89 µM | TGI [49]: 19.5 µM | GI50 [50]: 11.8 µM | TGI [50]: > 25 µM | GI50 [51]: 8.71 µM | TGI [51]: > 25 µM | GI50 [52]: 2.74 µM | TGI [52]: 12.5 µM | GI50 [53]: 5.07 µM | TGI [53]: 16.9 µM | GI50 [54]: 7.04 µM | TGI [54]: > 25 µM | GI50 [55]: 10.2 µM | TGI [55]: > 25 µM | GI50 [56]: 7.23 µM | TGI [56]: > 25 µM | GI50 [57]: 12.9 µM | TGI [57]: > 25 µM
